The TGI is the concentration giving total growth inhibition. Read a low TGI as greater sensitivity of the cells. As usually defined, the GI50 is the concentration giving 50% growth inhibition.

Data on ten compounds can be found in PubChem BioAssay (NCI).

Among the test systems are A549 NSCLC; UACC-62 melanoma; COLO 205 colon; SK-MEL-28 melanoma; M14 melanoma; HOP-62 NSCLC; MDA-MB-435; SK-OV-3 ovarian; RPMI-8226 leukemia; HCT-116 colon; IGROV1 ovarian; SNB-75 CNS; MDA-MB-231 breast; OVCAR-5 ovarian; HL-60(TB) leukemia; MALME-3M melanoma; OVCAR-3 ovarian.
Test in all cases: DTP human tumour cell line panel, 48 h

The structures appear in SMILES notation. “And” between values parts separate entries of the source, which are not always exact repeats. Equal values may be shown once.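 Where inhibition never reached the appropriate level, the endpoint shown equals the highest concentration tested. Otherwise, values were interpolated linearly from a five-concentration, 48-hour dose response in 96-well plates. GI50 marks 50% less growth. TGI marks complete inhibition of growth.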 A value given as a limit tells only on which side of the number the result lay.

Take `COc1ccc(C(=O)/C=C/c2ccc(OCCCOc3ccc(/C=C/C(=O)c4ccc(OC)cc4)cc3)cc2)cc1`: the TGI in the assay on A549 NSCLC, in the assay with UACC-62 melanoma, in the assay on COLO 205 colon, with SK-MEL-28 melanoma, in the assay with M14 melanoma and in the assay on HOP-62 NSCLC was above 100 µM in each case. For the same compound, the TGI in the assay with MDA-MB-435, with SK-OV-3 ovarian, in the assay on RPMI-8226 leukemia, in the assay on HCT-116 colon, in the assay on IGROV1 ovarian and in the assay with SNB-75 CNS was above 100 µM each time. Moreover, the TGI with MDA-MB-231 breast, with OVCAR-5 ovarian and in the assay with HL-60(TB) leukemia was above 100 µM throughout.

Regarding `COc1cc(OC)cc(C(=O)CC(=O)c2cc(OC)cc(OC)c2)c1`, the TGI with A549 NSCLC, with UACC-62 melanoma, in the assay on COLO 205 colon, in the assay on SK-MEL-28 melanoma, with M14 melanoma and in the assay with HOP-62 NSCLC was above 100 µM each time. For the same compound, the TGI in the assay with MALME-3M melanoma, with MDA-MB-435, with SK-OV-3 ovarian, in the assay with RPMI-8226 leukemia, with HCT-116 colon and in the assay with IGROV1 ovarian was above 100 µM each time. Also, the TGI in the assay on OVCAR-3 ovarian, in the assay on SNB-75 CNS, in the assay on OVCAR-5 ovarian and with HL-60(TB) leukemia was above 100 µM in each case.

With `CCOC(=O)N1CCC(N[C@@H]2c3cc4c(cc3C(c3cc(OC)c(O)c(OC)c3)C3C(=O)OC[C@@H]32)OCO4)CC1` (stereo partly drawn), the TGI with A549 NSCLC is 1.44 µM and 5.01 µM; in the assay with UACC-62 melanoma, 2.87 µM and 5.37 µM; with COLO 205 colon it was 15.1 µM and 13.1 µM; with SK-MEL-28 melanoma, 27.1 µM and 16.4 µM; with M14 melanoma, 6.31 µM and 8.14 µM; in the assay on HOP-62 NSCLC it was 2.63 µM and 2.65 µM. Further, the TGI with MALME-3M melanoma was 9.79 µM and 9.69 µM; with SK-OV-3 ovarian, 4.6 µM and 4.45 µM; in the assay on RPMI-8226 leukemia, 18.7 µM and > 25 µM; with HCT-116 colon it was 22.3 µM and 11 µM; in the assay on IGROV1 ovarian, 13.6 µM and 9.21 µM; in the assay with OVCAR-3 ovarian, 17.5 µM and 11.6 µM. Also, the TGI is 15.2 µM and 24.8 µM with SNB-75 CNS; 14 µM and 17.4 µM in the assay on OVCAR-5 ovarian; 2 µM and 5.46 µM in the assay on HL-60(TB) leukemia. For the same compound, the GI50 in the assay on RPMI-8226 leukemia was 1.46 µM and 4.12 µM; with OVCAR-5 ovarian, 3.3 µM and 7.49 µM; in the assay with HL-60(TB) leukemia, 0.221 µM and 0.468 µM.

Take `Cc1ccc(/C=N\NC2c3cc(Cl)ccc3Nc3nc(=O)[nH]c(C)c32)cc1` (stereo not drawn): the TGI in the assay on A549 NSCLC, in the assay with UACC-62 melanoma, in the assay on COLO 205 colon, in the assay with SK-MEL-28 melanoma, in the assay with M14 melanoma and with HOP-62 NSCLC was above 100 µM throughout. The TGI in the assay with MALME-3M melanoma, in the assay with SK-OV-3 ovarian, with RPMI-8226 leukemia, in the assay on HCT-116 colon, in the assay on IGROV1 ovarian and in the assay with OVCAR-3 ovarian was above 100 µM in each case. Further, the TGI with SNB-75 CNS and with HL-60(TB) leukemia was above 100 µM each time.

`O=C(NCP(=O)(Oc1ccccc1)Oc1ccccc1)OCc1ccccc1`: the TGI with A549 NSCLC, in the assay on UACC-62 melanoma, with COLO 205 colon, in the assay with SK-MEL-28 melanoma, with M14 melanoma and in the assay with HOP-62 NSCLC was above 100 µM each time. Further, the TGI with MALME-3M melanoma, with MDA-MB-435, with SK-OV-3 ovarian, in the assay on RPMI-8226 leukemia, in the assay on IGROV1 ovarian and in the assay with OVCAR-3 ovarian was above 100 µM throughout. Moreover, the TGI in the assay on SNB-75 CNS, in the assay on OVCAR-5 ovarian and in the assay with HL-60(TB) leukemia was above 100 µM throughout.

Take `CSc1nc(SC)c2c(C#N)[nH]nc2n1`: the TGI in the assay with A549 NSCLC, with UACC-62 melanoma, with COLO 205 colon, in the assay with SK-MEL-28 melanoma, in the assay on M14 melanoma and in the assay on HOP-62 NSCLC was above 100 µM throughout. Moreover, the TGI in the assay on MALME-3M melanoma, with SK-OV-3 ovarian, in the assay with RPMI-8226 leukemia, in the assay on IGROV1 ovarian, with OVCAR-3 ovarian and in the assay with SNB-75 CNS was above 100 µM each time.

In the case of `CCOC(=O)C1S/C(=N\C(=N)N[N+](=O)[O-])N=C1C` (stereo not drawn), the TGI in the assay on A549 NSCLC, in the assay with COLO 205 colon, in the assay with SK-MEL-28 melanoma, with HOP-62 NSCLC, in the assay on MALME-3M melanoma and with RPMI-8226 leukemia was above 100 µM throughout. The TGI in the assay with HCT-116 colon, in the assay on IGROV1 ovarian, in the assay on OVCAR-3 ovarian, in the assay with SNB-75 CNS, in the assay on OVCAR-5 ovarian and with HL-60(TB) leukemia was above 100 µM each time.

Regarding `C=C1CC(C#N)(C#N)[C@H]2C3CCCC3C[C@@H]12` (stereo partly drawn) (tested in a mixture with another compound), the TGI in the assay on UACC-62 melanoma is above 100 µM; with SK-MEL-28 melanoma, 42.4 µM; with M14 melanoma, 29.2 µM; in the assay with MDA-MB-435, 44.5 µM; in the assay with SK-OV-3 ovarian it was above 100 µM; in the assay on HCT-116 colon, 19.4 µM. The TGI is above 100 µM with IGROV1 ovarian, 38.9 µM with OVCAR-3 ovarian, 55.2 µM with MDA-MB-231 breast and 54.2 µM with HL-60(TB) leukemia.

`CC(O)CNC(=O)C(C)Oc1ccc(OCC2CCCCC2)cc1` (stereo not drawn): the TGI with A549 NSCLC, with UACC-62 melanoma, in the assay on SK-MEL-28 melanoma, in the assay on M14 melanoma, with MALME-3M melanoma and with SK-OV-3 ovarian was above 100 µM in each case. In addition, the TGI with HCT-116 colon, in the assay with IGROV1 ovarian, with OVCAR-3 ovarian, in the assay on SNB-75 CNS and with HL-60(TB) leukemia was above 100 µM throughout.

For the compound `OC[C@H]1O[C@@H]2O[C@@](COCc3ccccc3)([C@H](OCc3ccccc3)[C@H]2O)[C@@H]1OCc1ccccc1`, the TGI in the assay with A549 NSCLC stood at 29.3 µM; in the assay on UACC-62 melanoma, 27.7 µM; in the assay with COLO 205 colon it was 35 µM; in the assay with M14 melanoma it was 32.9 µM; in the assay on HOP-62 NSCLC, 32.6 µM; with MDA-MB-435 it was 31.8 µM. Further, the TGI came to 27.9 µM in the assay on SK-OV-3 ovarian; 32.4 µM in the assay on RPMI-8226 leukemia; 30.1 µM in the assay on HCT-116 colon; 27 µM with IGROV1 ovarian; 27.7 µM with OVCAR-3 ovarian; 29.7 µM with SNB-75 CNS. Besides, the TGI in the assay with MDA-MB-231 breast was found to be 29.3 µM; in the assay on OVCAR-5 ovarian it was 31.3 µM; in the assay with HL-60(TB) leukemia it was 38.2 µM.
